In US7138361B2, “Herbicidal heterocycles” (E. I. du Pont de Nemours and Company, priority 2000, dated 2006):

Columns and labels:
Type in all cases: in vivo
[1] = system: Surinam grass (Brachiaria decumbens); assay: Test B postemergence; settings: 13 to 15 days
Description: (§1) Seeds selected from barnyardgrass (Echinochloa crus-galli), Surinam grass (Brachiaria decumbens), cocklebur (Xanthium strumarium), corn (Zea mays), crabgrass (Digitaria sanguinalis), giant foxtail (Setaria faberii), lambsquarters (Chenopodium album), morning glory (Ipomoea hederacea), pigweed (Amaranthus retroflexus), rice (Oryza saliva) and velvetleaf (Abutilon theophrasti) were planted and treated preemergence with test chemicals formulated in a non-phytotoxic solvent mixture which included a surfactant.
(§2) At the same time, plants selected from these crop and weed species and also blackgrass (Alopecurus myosuroides), wheat (Triticum aestivum) and wild oat (Avena fatua) were treated with postemergence applications of test chemicals formulated in the same manner. Plants ranged in height from 2 to 18 cm (1- to 4-leaf stage) for postemergence treatments. Plant species in the flooded paddy test consisted of rice (Oryza saliva), smallflower flatsedge (Cyperus difformis), duck salad (Heteranthera limosa) and barnyardgrass (Echinochloa crus-galli) grown to the 2-leaf stage for testing. Treated plants and controls were maintained in a greenhouse for 13 to 15 days, after which time all species were compared to controls and visually evaluated. Plant response ratings, summarized in Table B, are based on a scale of 0 to 100 where 0 is no effect and 100 is complete control. A dash (-) response means no test result.

[2] = system: barnyardgrass (Echinochloa crus-galli); assay: Test B postemergence; settings: 13 to 15 days
Description: as §1, §2

[3] = system: blackgrass (Alopecurus myosuroides); assay: Test B postemergence; settings: 13 to 15 days
Description: as §1, §2

corn (Zea mays) [4] = assay: Test B postemergence; settings: 13 to 15 days
Description: as §1, §2

[5] = system: crabgrass (Digitaria sanguinalis); assay: Test B postemergence; settings: 13 to 15 days
Description: as §1, §2

[6] = system: giant foxtail (Setaria faberii); assay: Test B postemergence; settings: 13 to 15 days
Description: as §1, §2

[7] = system: lambsquarters (Chenopodium album); assay: Test B postemergence; settings: Rate 500 g/ha, scale 0 to 100, 0 is no effect, 100 is complete control, 13 to 15 days
Description: as §1, §2

[8] = system: morning glory (Ipomoea hederacea); assay: Test B postemergence; settings: Rate 500 g/ha, scale 0 to 100, 0 is no effect, 100 is complete control, 13 to 15 days
Description: as §1, §2

[9] = system: pigweed (Amaranthus retroflexus); assay: Test B postemergence; settings: Rate 500 g/ha, scale 0 to 100, 0 is no effect, 100 is complete control, 13 to 15 days
Description: as §1, §2

[10] = system: velvetleaf (Abutilon theophrasti); assay: Test B postemergence; settings: Rate 500 g/ha, scale 0 to 100, 0 is no effect, 100 is complete control, 13 to 15 days
Description: as §1, §2

[11] = system: wheat (Triticum aestivum); assay: Test B postemergence; settings: Rate 500 g/ha, scale 0 to 100, 0 is no effect, 100 is complete control, 13 to 15 days
Description: as §1, §2

wild oat (Avena fatua) = assay: Test B postemergence; settings: Rate 500 g/ha, scale 0 to 100, 0 is no effect, 100 is complete control, 13 to 15 days
Description: as §1, §2

[12] = system: Surinam grass (Brachiaria decumbens); assay: Test B preemergence
Description: as §1, §2

[13] = system: barnyardgrass (Echinochloa crus-galli); assay: Test B preemergence
Description: as §1, §2

[14] = system: cocklebur (Xanthium strumarium); assay: Test B preemergence
Description: as §1, §2

corn (Zea mays) [15] = assay: Test B preemergence
Description: as §1, §2

[16] = system: crabgrass (Digitaria sanguinalis); assay: Test B preemergence
Description: as §1, §2

[17] = system: giant foxtail (Setaria faberii); assay: Test B preemergence
Description: as §1, §2

[18] = system: lambsquarters (Chenopodium album); assay: Test B preemergence
Description: as §1, §2

[19] = system: morning glory (Ipomoea hederacea); assay: Test B preemergence
Description: as §1, §2

[20] = system: pigweed (Amaranthus retroflexus); assay: Test B preemergence
Description: as §1, §2

rice (Oryza saliva) [21] = assay: Test B preemergence
Description: as §1, §2

[22] = system: velvetleaf (Abutilon theophrasti); assay: Test B preemergence
Description: as §1, §2

[23] = system: barnyardgrass (Echinochloa crus-galli); assay: Test C flooded paddy test; settings: for Barnyardgrass plant response rating: Flooded Paddy, scale 0 to 100, 0 no effect, 100 complete control; for Plant response rating, Barnyardgrass: flooded paddy test, scale 0 to 100 (0 no effect, 100 complete control)
Protocol: (§3) At the same time, plants selected from these crop and weed species and also winter barley (Hordeum vulgare), blackgrass (Alopecurus myosuroides), canary grass (Phalaris minor), chickweed (Stellaria media), downy brome (Bromus tectorum), green foxtail (Setaria viridis), Italian ryegrass (Lolium multiflorum), wheat (Triticum aestivum), wild oat (Avena fatua) and windgrass (Apera spica-venti) were treated with postemergence applications of some of the test chemicals formulated in the same manner. Plants ranged in height from 2 to 18 cm (1- to 4-leaf stage) for postemergence treatments. Plant species in the flooded paddy test consisted of rice (Oryza saliva), smallflower flatsedge (Cyperus difformis), duck salad (Heteranthera limosa) and barnyardgrass (Echinochloa crus-galli) grown to the 2-leaf stage for testing. Treated plants and controls were maintained in a greenhouse for 12 to 14 days, after which time all species were compared to controls and visually evaluated. Plant response ratings, summarized in Table C, are based on a scale of 0 to 100 where 0 is no effect and 100 is complete control. A dash (-) response means no test result.

[24] = system: duck salad (Heteranthera limosa); assay: Test C flooded paddy test; settings: for Ducksalad plant response rating: Flooded Paddy, scale 0 to 100, 0 no effect, 100 complete control; for Plant response rating, Ducksalad: flooded paddy test, scale 0 to 100 (0 no effect, 100 complete control)
Protocol: as §3

rice (Oryza saliva) [25] = assay: Test C flooded paddy test; settings: for Rice plant response rating: Flooded Paddy, scale 0 to 100, 0 no effect, 100 complete control; for Plant response rating, Rice: flooded paddy test, scale 0 to 100 (0 no effect, 100 complete control)
Protocol: as §3

[26] = system: smallflower flatsedge (Cyperus difformis); assay: Test C flooded paddy test; settings: for Flatsedge plant response rating: Flooded Paddy, scale 0 to 100, 0 no effect, 100 complete control; for Plant response rating, Flatsedge: flooded paddy test, scale 0 to 100 (0 no effect, 100 complete control)
Protocol: as §3

[27] = Rate 125 g/ha, scale 0 (no effect) to 100 (complete control)
[28] = Rate 500 g/ha, scale 0 to 100, 0 is no effect, 100 is complete control
[29] = Preemergence, Rate 500 g/ha, scale 0 to 100, 0 no effect, 100 complete control
[30] = preemergence, Rate 125 g/ha, scale of 0 to 100 where 0 is no effect and 100 is complete control, 13 to 15 days

CC(C)(C)c1ccn(C2CCN(c3cccc(C#N)c3)C2=O)n1 (stereo not shown) [Compound 104]
Plant response rating, Surinam grass [1, 27]: 0
Plant response rating, Surinam grass [1, 28]: 0
Plant response rating, Barnyardgrass [2, 27]: 0
Plant response rating, Barnyardgrass [2, 28]: 0
Plant response rating, Blackgrass [3, 27]: 0
Plant response rating, Blackgrass [3, 28]: 0
Plant response rating, Corn (corn (Zea mays) [4]; [27]): 0
Plant response rating, Corn (corn (Zea mays) [4]; [28]): 0
Plant response rating, Crabgrass [5, 27]: 0
Plant response rating, Crabgrass [5, 28]: 0
Plant response rating, Foxtail, Giant [6, 27]: 0
Plant response rating, Foxtail, Giant [6, 28]: 0
Plant response rating, Lambsquarters [7]: 0
Plant response rating, Morningglory [8]: 0
Plant response rating, Pigweed [9]: 0
Plant response rating, Velvetleaf [10]: 0
Plant response rating, Wheat [11]: 0
Plant response rating, Wild Oat (wild oat (Avena fatua)): 0
Plant response rating, Surinam grass [12, 29]: 0
Plant response rating, Surinam grass [12, 30]: 0
Plant response rating, Barnyardgrass [13, 29]: 0
Plant response rating, Barnyardgrass [13, 30]: 0
Plant response rating, Cocklebur [14, 29]: 0
Plant response rating, Cocklebur [14, 30]: 0
Plant response rating, Corn (corn (Zea mays) [15]; [29]): 0
Plant response rating, Corn (corn (Zea mays) [15]; [30]): 0
Plant response rating, Crabgrass [16, 29]: 0
Plant response rating, Crabgrass [16, 30]: 0
Plant response rating, Foxtail, Giant [17, 29]: 0
Plant response rating, Foxtail, Giant [17, 30]: 0
Plant response rating, Lambsquarters [18, 29]: 100
Plant response rating, Lambsquarters [18, 30]: 100
Plant response rating, Morningglory [19, 29]: 0
Plant response rating, Morningglory [19, 30]: 0
Plant response rating, Pigweed [20, 29]: 100
Plant response rating, Pigweed [20, 30]: 70
Plant response rating, Rice (rice (Oryza saliva) [21]; [29]): 0
Plant response rating, Rice (rice (Oryza saliva) [21]; [30]): 0
Plant response rating, Velvetleaf [22, 29]: 0
Plant response rating, Velvetleaf [22, 30]: 0
Barnyardgrass plant response rating ([23]; Rate 250 g/ha): 0
Barnyardgrass plant response rating ([23]; Rate 500 g/ha): 0
Plant response rating, Barnyardgrass ([23]; Rate 62 g/ha): 0
Plant response rating, Barnyardgrass ([23]; Rate 125 g/ha): 0
Ducksalad plant response rating ([24]; Rate 250 g/ha): 0
Ducksalad plant response rating ([24]; Rate 500 g/ha): 0
Plant response rating, Ducksalad ([24]; Rate 62 g/ha): 0
Plant response rating, Ducksalad ([24]; Rate 125 g/ha): 0
Rice plant response rating (rice (Oryza saliva) [25]; Rate 250 g/ha): 0
Rice plant response rating (rice (Oryza saliva) [25]; Rate 500 g/ha): 0
Plant response rating, Rice (rice (Oryza saliva) [25]; Rate 62 g/ha): 0
Plant response rating, Rice (rice (Oryza saliva) [25]; Rate 125 g/ha): 0
Flatsedge plant response rating ([26]; Rate 250 g/ha): 0
Flatsedge plant response rating ([26]; Rate 500 g/ha): 0
Plant response rating, Flatsedge ([26]; Rate 62 g/ha): 0
Plant response rating, Flatsedge ([26]; Rate 125 g/ha): 0

CC(C)(C)c1ccn(C2CCN(c3ccc4c(c3)CCC4)C2=O)n1 (stereo not shown) [Compound 105]
Plant response rating, Surinam grass [1, 27]: 0
Plant response rating, Surinam grass [1, 28]: 0
Plant response rating, Barnyardgrass [2, 27]: 0
Plant response rating, Barnyardgrass [2, 28]: 0
Plant response rating, Blackgrass [3, 27]: 0
Plant response rating, Blackgrass [3, 28]: 0
Plant response rating, Corn (corn (Zea mays) [4]; [27]): 0
Plant response rating, Corn (corn (Zea mays) [4]; [28]): 0
Plant response rating, Crabgrass [5, 27]: 0
Plant response rating, Crabgrass [5, 28]: 0
Plant response rating, Foxtail, Giant [6, 27]: 0
Plant response rating, Foxtail, Giant [6, 28]: 0
Plant response rating, Lambsquarters [7]: 0
Plant response rating, Morningglory [8]: 0
Plant response rating, Pigweed [9]: 0
Plant response rating, Velvetleaf [10]: 0
Plant response rating, Wheat [11]: 0
Plant response rating, Wild Oat (wild oat (Avena fatua)): 0
Plant response rating, Surinam grass [12, 29]: 0
Plant response rating, Surinam grass [12, 30]: 0
Plant response rating, Barnyardgrass [13, 29]: 0
Plant response rating, Barnyardgrass [13, 30]: 0
Plant response rating, Cocklebur [14, 29]: 0
Plant response rating, Cocklebur [14, 30]: 0
Plant response rating, Corn (corn (Zea mays) [15]; [29]): 0
Plant response rating, Corn (corn (Zea mays) [15]; [30]): 0
Plant response rating, Crabgrass [16, 29]: 30
Plant response rating, Crabgrass [16, 30]: 0
Plant response rating, Foxtail, Giant [17, 29]: 20
Plant response rating, Foxtail, Giant [17, 30]: 0
Plant response rating, Lambsquarters [18, 29]: 100
Plant response rating, Lambsquarters [18, 30]: 60
Plant response rating, Morningglory [19, 29]: 0
Plant response rating, Morningglory [19, 30]: 0
Plant response rating, Pigweed [20, 29]: 100
Plant response rating, Pigweed [20, 30]: 0
Plant response rating, Rice (rice (Oryza saliva) [21]; [29]): 0
Plant response rating, Rice (rice (Oryza saliva) [21]; [30]): 0
Plant response rating, Velvetleaf [22, 29]: 0
Plant response rating, Velvetleaf [22, 30]: 0
Barnyardgrass plant response rating ([23]; Rate 250 g/ha): 20
Barnyardgrass plant response rating ([23]; Rate 500 g/ha): 60
Plant response rating, Barnyardgrass ([23]; Rate 62 g/ha): 0
Plant response rating, Barnyardgrass ([23]; Rate 125 g/ha): 0
Ducksalad plant response rating ([24]; Rate 250 g/ha): 0
Ducksalad plant response rating ([24]; Rate 500 g/ha): 0
Plant response rating, Ducksalad ([24]; Rate 62 g/ha): 0
Plant response rating, Ducksalad ([24]; Rate 125 g/ha): 0
Rice plant response rating (rice (Oryza saliva) [25]; Rate 250 g/ha): 20
Rice plant response rating (rice (Oryza saliva) [25]; Rate 500 g/ha): 30
Plant response rating, Rice (rice (Oryza saliva) [25]; Rate 62 g/ha): 0
Plant response rating, Rice (rice (Oryza saliva) [25]; Rate 125 g/ha): 0
Flatsedge plant response rating ([26]; Rate 250 g/ha): 90
Flatsedge plant response rating ([26]; Rate 500 g/ha): 90
Plant response rating, Flatsedge ([26]; Rate 62 g/ha): 40
Plant response rating, Flatsedge ([26]; Rate 125 g/ha): 90
